Values quoted from earlier work, collected in patent US20200338016A1, “COMBINATION BROAD-SPECTRUM ANTIBIOTIC PREPARATIONS FOR DRUG-RESISTANT PATHOGENS” (priority 2019, published 2020).

Test system: Mycobacterim tuberculosis
Conditions: ten strains of Mycobacterim tuberculosis, including six resistant to antibiotics

Row | Structure (SMILES) | concentration that kills
1 | O=C(O[C@@H]1Cc2c(O)cc(O)cc2O[C@@H]1c1cc(O)c(O)c(O)c1)c1cc(O)c(O)c(O)c1 [EGCG, epigallocatechin gallate] | 1024 micrograms per milliliter
2 | O=C(O)/C=C/c1ccc(O)c(O)c1 [caffeic acid] | 1024 micrograms per milliliter
3 | O=c1c(O)c(-c2ccc(O)c(O)c2)oc2cc(O)cc(O)c12 [quercetin] | 1024 micrograms per milliliter
